We go through 1 molecule from patent US6613762B2, “Gambogic acid, analogs and derivatives as activators of caspases and inducers of apoptosis” (Cytovia, Inc., priority 1999, dated 2003).

In this assay the test system is caspase activity, A-549 cells. Nature of the assay: Caspase induction and its inhibition by caspase inhibitor (Example 97), A-549. The arrangement: key to Inhibition of caspase activity by Inhibitor: The caspase activity detected was inhibited by the caspase inhibitor (+). Format: cell-based, human. Here is the method:
T47D, ZR-75, PC3, SHP-77 and A-549 cells were maintained and harvested as described in Example 90. Cells were added to 96-well plates as described in Example 90. The cells were treated with 10 μM gambogic acid, in the presence and in the absence of 10 μM caspase inhibitor cbz-Val-Asp-fmk (Cytovia, Inc.; WO99/18781). The plate was incubated up to 24 h at 37° C in a 5% CO2-95% humidity incubator. Caspase activity was determined by addition of a fluorogenic substrate as described in Example 90.
Gambogic acid induced caspase activity in a ratio of greater than 2.5 (+) above untreated cell levels in all the tested cancer cell lines (Table IV). The caspase activity detected was inhibited by the caspase inhibitor (+), confirming that the fluorescent signal was due to caspase activity.

As for `CC(C)=CCC[C@]1(C)C=Cc2c(O)c3c(c(CC=C(C)C)c2O1)O[C@]12C(=C[C@@H]4C[C@H]1C(C)(C)O[C@@]2(C/C=C(/C)C(=O)O)C4=O)C3=O` [Example 1, Gambogic Acid], the “Inhibition of caspase activity by Inhibitor” value (A-549, 10 μM gambogic acid with 10 μM caspase inhibitor cbz-Val-Asp-fmk) is reported as “+”. Also, where the note is “A-549, 10 μM gambogic acid, up to 24 h”, the Caspase activity result is reported as “+ (Gambogic acid induced caspase activity in a ratio of greater than 2.5 (+) above untreated cell levels)”.
